Literature values, collected in patent publication US7396658B2, “Methods for screening HIF like ouabain-resistant Na+—K+-ATPase agents” (priority 1998, dated 2008).

Legend:
[1] = molecular target: T1, ouabain-resistant α1 isoform (obtained from rat kidney) (Rattus norvegicus, UniProt P06685); conditions: α1 from rat kidney vs α2/α3 from rat brain axolemma; factor greater
T1 construct: the ouabain-resistant α1 isoform (obtained from rat kidney); host or cells: rat kidney tissue

[2] = molecular target: ouabain-resistant Na^+—K^+-ATPase (Rattus norvegicus, UniProt P06685); conditions: generally needed

## C[C@@H]1O[C@@H](O[C@H]2C[C@@H](O)[C@]3(CO)[C@H]4[C@H](O)C[C@]5(C)[C@@H](C6=CC(=O)OC6)CC[C@]5(O)[C@@H]4CC[C@]3(O)C2)[C@H](O)[C@H](O)[C@H]1O [ouabain]
[1]
  concentrations of ouabain required for inactivation of the ouabain-resistant α1 isoform, relative to that for inactivating the ouabain-sensitive α2/α3 isoforms: 10^2-10^3
[2]
  concentration needed to inhibit ouabain-resistant Na+-K+-ATPases relative to that inhibiting ouabain sensitive Na+-K+-ATPase: ≥ 100 fold
